Experimental data: ChEMBL document CHEMBL5154935, “Design, Synthesis, and Biological Evaluation of Novel Evodiamine Derivatives as Potential Antihepatocellular Carcinoma Agents” (J Med Chem, 2022)
Calls of active or inactive are those of the source. The calls are words filed in the database; no cut-off is given here.

Legend:
[1] = system: Huh-7; assay: Induction of apoptosis in human Huh-7 cells assessed as cytoskeleton disintegration incubated for 24 hrs by Giemsa staining based microscopy; assay type: functional, cell-based; settings: dose 12-60 nM, DDE = dose-dependent effect
[2] = system: SK-HEP1; assay: Induction of cell cycle arrest in human SK-Hep1 cells assessed as accumulation at G1 phase at 40 nM treated for 24 hrs by PI staining based flow cytometry (reference value: 58.47 %); assay type: functional
[3] = system: SK-HEP1; assay: Induction of apoptosis in human SK-Hep1 cells assessed as necrotic cells at 10 nM incubated for 24 hrs by annexin V-FITC/PI staining flow cytometry (reference value: 0.73 %); assay type: functional
[4] = system: SK-HEP1; assay: Induction of apoptosis in human SK-Hep1 cells assessed as early apoptotic cells at 40 nM incubated for 24 hrs by annexin V-FITC/PI staining flow cytometry (reference value: 0.30 %); assay type: functional
[5] = Induction of apoptosis in rat HSC-T6 cells assessed as early apoptotic cells at 40 nM pretreated with TGFbeta-1 for 1 day followed by compound addition and measured after 24 hrs by flow cytometry (reference value: 0.17 %); assay type: functional
[6] = Induction of apoptosis in rat HSC-T6 cells assessed as necrotic cells at 10 nM pretreated with TGFbeta-1 for 1 day followed by compound addition and measured after 24 hrs by flow cytometry (reference value: 0.56 %); assay type: functional
[7] = system: SK-HEP1; assay: Induction of apoptosis in human SK-Hep1 cells assessed as necrotic cells at 40 nM incubated for 24 hrs by annexin V-FITC/PI staining flow cytometry (reference value: 0.73 %); assay type: functional
[8] = system: SK-HEP1; assay: Induction of cell cycle arrest in human SK-Hep1 cells assessed as accumulation at G1 phase at 80 nM treated for 24 hrs by PI staining based flow cytometry (reference value: 58.47 %); assay type: functional
[9] = system: SK-HEP1; assay: Induction of cell cycle arrest in human SK-Hep1 cells assessed as accumulation at S phase at 80 nM treated for 24 hrs by PI staining based flow cytometry (reference value: 24.98 %); assay type: functional
[10] = biological target: T1, DNA topoisomerase 1 (Homo sapiens) (UniProt P11387); assay: Inhibition of Top1 (unknown origin) assessed as inhibition of relaxation of supercoiled pBR322 plasmid DNA at 12.5 uM incubated for 25 mins by ethidium bromide staining based agarose gel electrophoresis analysis relative to control
T1 sequence (whole entry): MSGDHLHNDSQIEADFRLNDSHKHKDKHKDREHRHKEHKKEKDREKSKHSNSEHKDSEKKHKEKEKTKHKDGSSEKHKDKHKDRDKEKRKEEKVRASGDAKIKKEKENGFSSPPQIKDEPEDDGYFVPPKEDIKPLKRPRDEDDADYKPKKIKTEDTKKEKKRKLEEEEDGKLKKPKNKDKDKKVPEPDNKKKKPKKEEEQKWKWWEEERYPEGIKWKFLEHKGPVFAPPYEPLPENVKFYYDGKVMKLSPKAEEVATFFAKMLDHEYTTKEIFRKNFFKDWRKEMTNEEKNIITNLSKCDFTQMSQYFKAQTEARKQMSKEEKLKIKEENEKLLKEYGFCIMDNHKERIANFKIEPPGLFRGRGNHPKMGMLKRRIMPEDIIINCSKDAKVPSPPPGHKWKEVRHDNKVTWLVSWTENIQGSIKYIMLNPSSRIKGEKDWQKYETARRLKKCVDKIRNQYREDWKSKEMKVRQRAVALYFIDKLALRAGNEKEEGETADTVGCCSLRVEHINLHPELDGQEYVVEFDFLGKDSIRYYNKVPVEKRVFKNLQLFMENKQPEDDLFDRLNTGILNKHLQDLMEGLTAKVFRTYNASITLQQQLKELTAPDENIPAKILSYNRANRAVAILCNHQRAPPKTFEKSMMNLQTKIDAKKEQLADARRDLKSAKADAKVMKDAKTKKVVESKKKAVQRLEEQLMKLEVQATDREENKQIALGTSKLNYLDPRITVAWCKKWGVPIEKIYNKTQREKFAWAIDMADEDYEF

[11] = system: Huh-7; assay: Induction of apoptosis in human Huh-7 cells assessed as late apoptotic cells at 10 nM incubated for 24 hrs by annexin V-FITC/PI staining flow cytometry (reference value: 1.33 %); assay type: functional
[12] = Induction of apoptosis in rat HSC-T6 cells assessed as early apoptotic cells at 80 nM pretreated with TGFbeta-1 for 1 day followed by compound addition and measured after 24 hrs by flow cytometry (reference value: 0.17 %); assay type: functional
[13] = system: SK-HEP1; assay: Induction of apoptosis in human SK-Hep1 cells assessed as cytoskeleton disintegration incubated for 24 hrs by Giemsa staining based microscopy; assay type: functional, cell-based; settings: dose 12-60 nM, DDE = dose-dependent effect
[14] = system: Huh-7; assay: Induction of apoptosis in human Huh-7 cells assessed as change in cell membrane permeability by measuring blue fluorescence incubated for 24 hrs by Hoechst staining based microscopy; assay type: functional; settings: dose 12-60 nM, DDE = dose-dependent effect
[15] = system: Huh-7; assay: Induction of cell cycle arrest in human Huh-7 cells assessed as accumulation at S phase at 80 nM treated for 24 hrs by PI staining based flow cytometry (reference value: 23.33 %); assay type: functional
[16] = Induction of apoptosis in rat HSC-T6 cells assessed as viable cells at 10 nM pretreated with TGFbeta-1 for 1 day followed by compound addition and measured after 24 hrs by flow cytometry (reference value: 97.5 %); assay type: functional; settings: read-out: Activity
[17] = Induction of apoptosis in rat HSC-T6 cells assessed as late apoptotic cells at 40 nM pretreated with TGFbeta-1 for 1 day followed by compound addition and measured after 24 hrs by flow cytometry (reference value: 1.76 %); assay type: functional
[18] = system: Huh-7; assay: Induction of cell cycle arrest in human Huh-7 cells assessed as accumulation at G2 phase at 10 nM treated for 24 hrs by PI staining based flow cytometry (reference value: 15.90 %); assay type: functional
[19] = system: Huh-7; assay: Induction of apoptosis in human Huh-7 cells assessed as chromatin agglutination incubated for 24 hrs by Giemsa staining based microscopy; assay type: functional, cell-based; settings: dose 12-60 nM, DDE = dose-dependent effect
[20] = system: SK-HEP1; assay: Induction of mitochondrial membrane potential changes in human SK-Hep1 cells assessed as decrease in TMRE positive cells incubated for 24 hrs by TMRE staining based flow cytometry; assay type: functional, cell-based; settings: dose 10-80 nM, DDE = dose-dependent effect
[21] = Antiproliferative activity against human L02 cells treated for 72 hrs by MTT assay; assay type: toxicity, cell-based
[22] = system: SK-HEP1; assay: Antiproliferative activity against human SK-Hep1 cells assessed as inhibition of cell viability treated for 24 to 72 hrs by MTT assay; assay type: functional, cell-based; settings: time 24-72 hrs, DDE = dose-dependent effect
[23] = system: Huh-7; assay: Induction of apoptosis in human Huh-7 cells assessed as necrotic cells at 40 nM incubated for 24 hrs by annexin V-FITC/PI staining flow cytometry (reference value: 1.08 %); assay type: functional
[24] = Induction of apoptosis in rat HSC-T6 cells assessed as early apoptotic cells at 10 nM pretreated with TGFbeta-1 for 1 day followed by compound addition and measured after 24 hrs by flow cytometry (reference value: 0.17 %); assay type: functional
[25] = Induction of apoptosis in rat HSC-T6 cells assessed as late apoptotic cells at 10 nM pretreated with TGFbeta-1 for 1 day followed by compound addition and measured after 24 hrs by flow cytometry (reference value: 1.76 %); assay type: functional
[26] = system: HCC; assay: Inhibition of clonogenicity in human HCC cells assessed as decrease in number of colonies at 3 to 18 nM incubated for 1 to 2 weeks by optical microscopy analysis; assay type: functional, cell-based; settings: dose 3-18 nM, time 1-2 weeks

SMILES	Activity [1]	Activity [2]	Activity [3]	Activity [4]	Activity [5]	Activity [6]	Activity [7]	Activity [8]	Activity [9]	inhibition [10]	Activity [11]	Activity [12]	Activity [13]	Activity [14]	Activity [15]	viability at 0.01 µM [16]	Activity [17]	Activity [18]	Activity [19]	Activity [20]	further results
O=C1c2cc(F)cc(F)c2N(c2cccc(F)c2)C2c3[nH]c4ccc(O)cc4c3CCN12 (configuration not stated)	Dde	21.83%	2.39%	8.02%	0.14%	0.8%	2.92%	11.58%	4.5%	43.9%	4.61%	0.72%	Dde	Dde	10.85%	94%	10.4%	26.52%	Dde	Dde	IC50 at 72 h [21]: 780 nM; Activity [22]: Dde; Activity [23]: 4.51%; Activity [24]: 0.084%; Activity [25]: 5.1%; inhibition [26]: Active
CC(=O)Oc1ccc2[nH]c3c(c2c1)CCN1C(=O)c2cc(F)cc(F)c2N(c2cccc(F)c2)C31 (configuration not stated)	Dde	25.35%	0.58%	8.25%	0.32%	0.93%	2.44%	19.76%	3.88%	56.1%	4.02%	0.83%	Dde	Dde	8.43%	89.9%	12.8%	13.54%	Dde	Dde	IC50 at 72 h [21]: 950 nM; Activity [22]: Dde; Activity [23]: 10.1%; Activity [24]: 0.52%; Activity [25]: 8.67%; inhibition [26]: Active
